Experimental data: publication PMC6151456, “Screening a Natural Product-Based Library against Kinetoplastid Parasites” (Molecules : A Journal of Synthetic Chemistry and Natural …, 2017)
Read-outs that look alike come from different tables or passages of the source.

Legend:
[1] = tested on: L. donovani DD8 promastigotes; assay: L. donovani DD8 promastigote viability assay (resazurin); type: cell-based, Leishmania donovani; conditions: for IC50: 14 point dose response, top 16.7 µM
Protocol: (§1) For the primary screen, compounds were prepared as a stock concentration of 5 mM in 100% DMSO and tested in duplicate points for two independent experiments (n = 2) at final assay concentrations of 20 µM and 16.7 µM for the L. donovani intracellular amastigote and promastigote viability assays, respectively. Primary screening against T. b. brucei was undertaken at 5 µM and for T. cruzi at 10 µM final concentrations. […] These compounds were then retested in a 14 point format to determine the IC50 value against the parasite, and against HEK-293, THP-1 and 3T3 cells to determine the selectivity to the parasite. […] A top dose of 20 µM was used in the T. b. brucei assay and 18.3 µM for T.cruzi assay, in 14 point dose repsonse curves as described.
This assay was established to assess the activity of the compound library on the extracellular form of the parasites. An initial cell density of 1 × 10^5 parasites/mL was inoculated into a 75 cm^2 flask (in a total of 30 mL of M199 medium + 10% (v/v) HIFBS) and incubated at 27 °C. After 96 h the parasites reached the mid-log phase and were seeded in black, clear bottom 384-well plates (Greiner-bio-one®, Monroe, UT, USA) at a concentration of 5 × 10^5 parasites/mL in a volume of 55 µL using a Bravo automated liquid handling platform (Agilent, Santa Clara, CA, USA). Compound stocks were diluted 1:25 in M199 media without HIFBS using a dilution plate (Greiner-bio-one®, Monroe, UT, USA). The compounds were dispensed in 5 µL using a Bravo and parasites incubated for an additional 68 h at 27 °C. Resazurin (Cayman Chemicals®, Ann Arbor, MI, USA) at 0.142 mM final assay concentration was then dispensed into plates at a volume of 10 µL/well using a Multidrop™ 384 Reagent Dispenser (Thermo Scientific®, Newington, NH, USA) and incubated at 27 °C. The plates were read after 4 h on an EnVision™ Multilabel plate reader (PerkinElmer, Waltham, MA, USA) using fluorometry with an excitation of 530 nm and emission 590 nm. For the L. donovani DD8 promastigote viability assay, 1 µM of amphotericin B was used as positive control and 0.4% DMSO as negative control.

[2] = tested on: L. donovani DD8 intracellular amastigotes; assay: L. donovani DD8 intracellular amastigote high content imaging assay; type: cell-based, Leishmania donovani; conditions: 14 point dose response, top 20 µM
Protocol: as §1
A high content, high-throughput imaging assay was used to identify compounds active against L. donovani DD8 intracellular amastigotes as described previosuly.

HEK-293 cells = assay: HEK-293 resazurin viability assay (cytotoxicity, selectivity); type: cell-based, human
Protocol: (§2) Primary screening against T. b. brucei was undertaken at 5 µM and for T. cruzi at 10 µM final concentrations.
Cytotoxicity testing was undertaken as previously described.

THP-1 cells = assay: THP-1 cytotoxicity (selectivity); type: cell-based, human
Protocol: as §1

[3] = tested on: T. cruzi intracellular amastigotes; assay: T. cruzi intracellular amastigote image-based assay; type: cell-based, Trypanosoma cruzi; conditions: for IC50: n = 2, top 18.3 µM
Protocol: as §1
(§3) The efficacy of compounds against T. cruzi was undertaken using a phenotypic, high-throughput image-based assay as previously described.

3T3 host cells = assay: 3T3 host cell cytotoxicity (selectivity); type: cell-based, mouse; conditions: relative to T. cruzi
Protocol: as §2, §3

[4] = tested on: T. b. brucei bloodstream form strain 427; assay: T. b. brucei resazurin viability assay; type: cell-based, Trypanosoma brucei brucei
Protocol: as §1
The efficacy of compounds against T. b. brucei bloodstream form was evaluated using a resazurin-based assay, previously described in the literature.

P. falciparum (3D7) = conditions: cited from earlier work
P. falciparum (Dd2) = conditions: read-out: IC50, P. falciparum Dd2; cited from earlier work
[5] = Leishmania donovani, n = 2, read-out: IC50 (mean ± SD), L. donovani DD8 intracellular amastigotes
[6] = relative to L. donovani DD8 intracellular amastigotes
[7] = relative to L. donovani DD8 promastigotes
[8] = Trypanosoma cruzi, intracellular amastigotes, read-out: IC50 (mean ± SD), T. cruzi
[9] = Leishmania donovani, read-out: IC50 (mean ± SD), L. donovani DD8 intracellular amastigotes, n = 2
[10] = Leishmania donovani, at 16.7 µM
[11] = Trypanosoma brucei, n = 2, 14 point dose response, top 20 µM, read-out: IC50 (mean ± SD), T. b. brucei
[12] = n = 2, 14 point dose response, top 20 µM, read-out: IC50 (mean ± SD), T. b. brucei
[13] = Trypanosoma brucei, reference compounds, read-out: IC50, T. b. brucei

Molecule	Selectivity index (SI) compared to HEK-293 cells (HEK-293 cells; [6])	Selectivity index (SI) compared to THP-1 cells (THP-1 cells; [6])	IC50 [3, 8]	Selectivity index (SI) compared to HEK-293 cells (HEK-293 cells; relative to T. cruzi)	Selectivity index (SI) compared to HEK-293 cells (HEK-293 cells; relative to T. b. brucei)	Selectivity index (SI) compared to 3T3 cells (3T3 host cells)	IC50 [4, 11]	other results
C[C@@H]1[C@H](O)[C@@H](C)/C=C/C=C/C=C/C=C/C=C/C=C/C=C/[C@H](O[C@@H]2O[C@H](C)[C@@H](O)[C@H](N)[C@@H]2O)C[C@@H]2O[C@](O)(C[C@@H](O)C[C@@H](O)[C@H](O)CC[C@@H](O)C[C@@H](O)CC(=O)O[C@H]1C)C[C@H](O)[C@H]2C(=O)O [Amphotericin B, reference compound]	> 41.65	> 9.61	–	–	–	–	–	IC50 ([1]; Leishmania donovani, n = 2, read-out: IC50 (mean ± SD), L. donovani DD8 promastigotes): 120 ± 10 nM; IC50 [2, 5]: 200 ± 20 nM; Selectivity index (SI) compared to HEK-293 cells (HEK-293 cells; [7]): > 68.27; Selectivity index (SI) compared to THP-1 cells (THP-1 cells; [7]): > 16.39
O=C(Cn1ccnc1[N+](=O)[O-])NCc1ccccc1 [Benznidazole, reference compound]	–	–	3360 ± 1520 nM	> 44.84	–	–	–	–
COc1c(OC)c2c(c(CCN(C)C)c1SC)Sc1c(CCN(C)C)c(SC)c(OC)c(OC)c1S2 [Compound 1, Lissoclinotoxin E]	> 2.26	1.13	–	> 2.52	> 17.68	> 4.67	–	IC50 [2, 9]: < 5000 nM; IC50 ([2]; read-out: IC50 (mean ± SD), L. donovani DD8 intracellular amastigotes, n = 2, listed as Lissoclinotoxin E (1)): 4410 ± 240 nM; IC50 ([3]; Trypanosoma cruzi, read-out: IC50 (mean ± SD), T. cruzi, intracellular amastigotes): < 5000 nM; IC50 ([3]; read-out: IC50 (mean ± SD), T. cruzi, intracellular amastigotes, listed as Lissoclinotoxin E (1)): 3920 ± 380 nM; Selectivity index (SI) compared to HEK-293 cells (HEK-293 cells; [7]): > 11.72; Selectivity index (SI) compared to THP-1 cells (THP-1 cells; [7]): 6.88
CC(C)=CCC[C@]1(C)C=Cc2c(O)c3c(c(CC=C(C)C)c2O1)O[C@]12C(=C[C@@H]4C[C@H]1C(C)(C)O[C@@]2(C/C=C(/C)C(=O)O)C4=O)C3=O [Compound 4, Gambogic acid]	–	–	1870 ± 70 nM	1.50	7.11	1.00	270 ± 40 nM	inhibition at 16.7 µM [1, 10]: 100%
COc1c(C)c2c(c(O)c1C/C=C(\C)CCC(=O)O)C(=O)OC2 [Compound 5, Mycophenolic acid, reference compound]	–	–	1590 ± 30 nM	0.37	1.01	0.13	510 ± 100 nM	–
O=C1N[C@@H]2C(=C[C@H](O)[C@@H](O)[C@H]2O)c2cc3c(c(O)c21)OCO3 [Compound 6, Narciclasine]	–	–	–	0.21	1.09	3.28	–	inhibition of L. donovani DD8 promastigotes ([1]; at 16.7 µM): 100% inhibition at 16.7 µM; IC50 [4, 12]: 30 ± 10 nM; IC50 ([3]; intracellular amastigotes, read-out: IC50 (mean ± SD), T. cruzi): 200 ± 10 nM
O=C1C2=C(C(=O)c3ccccc31)S(=O)(=O)CCN2 [Compound 9, 3,4-dihydro-2H-naphtho[2,3-b][1,4]thiazine-5,10-dione 1,1-dioxide]	–	–	3820 ± 610 nM	1.11	–	1.24	–	inhibition at 16.7 µM [1, 10]: 100%; IC50 ([3]; intracellular amastigotes, listed as 3,4-Dihydro-2H-naphtho[2,3-b]-[1,4] thiazine-5,10-dione 1,1-dioxide (9), read-out: IC50 (mean ± SD), T. cruzi): 3810 ± 600 nM
COc1c(SC)c(CCN(C)C)c2sc3c(CCN(C)C)c(SC)c(OC)c(OC)c3ssc2c1OC [Compound 11, Lissoclinotoxin F]	> 2.40	> 1.20	–	–	–	–	–	IC50 ([1]; Leishmania donovani, read-out: IC50 (mean ± SD), L. donovani DD8 promastigotes, n = 2): 5510 ± 300 nM; IC50 [2, 9]: 8310 ± 670 nM; Selectivity index (SI) compared to HEK-293 cells (HEK-293 cells; [7]): > 3.62; Selectivity index (SI) compared to THP-1 cells (THP-1 cells; [7]): > 1.81
CCOC(=O)c1c(C)n(-c2ccc(OC)cc2)c2ccc(O)c(CN(CC)CC)c12 [Compound 12, ethyl 4-((diethylamino)methyl)-5-hydroxy-1-(4-methoxyphenyl)-2-methyl-1H-indole-3-carboxylate]	> 2.97	> 1.50	–	–	–	–	–	inhibition at 16.7 µM [1, 10]: 100%; IC50 [2, 5]: 11100 ± 310 nM; activity against T. b. brucei [4]: no significant activity; activity against T. cruzi [3]: no significant activity
N=C(N)c1ccc(/N=N/Nc2ccc(C(=N)N)cc2)cc1 [Diminazene]	–	–	–	–	> 962.75	–	40 ± 10 nM	IC50 [4, 13]: 40.5 ± 12.8 nM
CC1CS(=O)(=O)CCN1/N=C/c1ccc([N+](=O)[O-])o1 (centres unmarked) [Nifurtimox, reference compound]	–	–	620 ± 100 nM	> 243.03	–	–	–	–
N=C(N)c1ccc(OCCCCCOc2ccc(C(=N)N)cc2)cc1 [Pentamidine]	–	–	–	–	> 334.52	–	2 ± 1 nM	IC50 [4, 13]: 2.86 ± 1.46 nM
COc1ccc(C[C@H](N)C(=O)N[C@H]2[C@@H](O)[C@H](n3cnc4c(N(C)C)ncnc43)O[C@@H]2CO)cc1 [Puromycin, reference compound]	–	–	1650 ± 350 nM	0.150	12.96	–	30 nM	IC50 [4, 13]: 39 ± 6.09 nM
Psammaplysin F [Compound 14]	–	–	–	> 3.51	–	> 1.90	–	IC50 ([3]; intracellular amastigotes, listed as Psammaplysin F (14), read-out: IC50 (mean ± SD), T. cruzi): 5630 ± 760 nM; IC50 (P. falciparum (3D7); read-out: IC50, P. falciparum 3D7): 870 nM; IC50 (P. falciparum (Dd2)): 1400 nM
Spermatinamine [Compound 2]	0.64	0.80	–	–	5.89	–	–	IC50 ([1]; n = 2, read-out: IC50 (mean ± SD), L. donovani DD8 promastigotes): 11900 ± 560 nM; IC50 ([2]; n = 2, read-out: IC50 (mean ± SD), L. donovani DD8 intracellular amastigotes): 6150 ± 50 nM; IC50 [4, 12]: 1000 ± 260 nM; Selectivity index (SI) compared to HEK-293 cells (HEK-293 cells; [7]): 0.33; Selectivity index (SI) compared to THP-1 cells (THP-1 cells; [7]): 0.41; IC50 (P. falciparum (3D7); read-out: antimalarial IC50, P. falciparum (3D7)): 230 nM
